According to patent US6211210A, “Diphenyl-1,2,3-thiadiazol-3-oxides, compositions and methods of use” (Merck Frosst Canada & Co., priority 2000, dated 2001):

Columns and labels:
COX-2 = target: T1, COX-2 (Homo sapiens, UniProt P35354); assay: Human whole blood assay: COX-2 (LPS-induced PGE2 production); type: cell-based; details: LPS-induced PGE2, 24 hours at 37° C.
T1 construct: incubation of human whole blood with LPS which induces COX-2; endogenous in cells
T1 sequence (P35354 18-604): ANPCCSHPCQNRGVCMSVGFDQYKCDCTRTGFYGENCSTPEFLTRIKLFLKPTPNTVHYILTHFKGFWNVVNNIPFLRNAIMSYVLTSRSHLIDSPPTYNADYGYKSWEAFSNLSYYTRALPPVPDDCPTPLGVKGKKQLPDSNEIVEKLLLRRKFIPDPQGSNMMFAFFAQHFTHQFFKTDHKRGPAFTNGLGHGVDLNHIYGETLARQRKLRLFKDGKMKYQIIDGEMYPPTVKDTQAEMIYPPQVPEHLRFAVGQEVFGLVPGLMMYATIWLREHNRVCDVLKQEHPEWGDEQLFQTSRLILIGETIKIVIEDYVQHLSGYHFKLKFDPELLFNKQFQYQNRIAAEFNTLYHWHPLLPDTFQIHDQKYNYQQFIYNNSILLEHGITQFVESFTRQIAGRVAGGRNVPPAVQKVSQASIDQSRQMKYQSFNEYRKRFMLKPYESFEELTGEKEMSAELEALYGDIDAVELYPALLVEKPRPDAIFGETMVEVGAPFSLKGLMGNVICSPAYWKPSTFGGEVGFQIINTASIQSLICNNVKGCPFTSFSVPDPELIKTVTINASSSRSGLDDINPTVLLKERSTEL
Source text: (§1) As well, platelets in whole blood contain a large amount of the COX-1 enzyme. Immediately following blood clotting, platelets are activated through a thrombin-mediated mechanism. This reaction results in the production of thromboxane B2 (TxB2) via activation of COX-1. Thus, the effect of test compounds on TxB2 levels following blood clotting can be examined and used as an index for COX-1 activity. Therefore, the degree of selectivity by the test compound can be determined by measuring the levels of PGE2 after LPS induction (COX-2) and TxB2 following blood clotting (COX-1) in the same assay.
Fresh blood was collected in heparinized tubes by venipuncture from both male and female volunteers. The subjects had no apparent inflammatory conditions and had not taken any NSAIDs for at least 7 days prior to blood collection. Plasma was immediately obtained from a 2 mL blood aliquot to use as blank (basal levels of PGE2). […] Five hundred μL aliquots of blood were incubated with either […] vehicle (DMSO) or 2 μL of a test compound at final concentrations varying from 10 nM to 30 μM for 24 hours at 37° C. At the end of the incubation, the blood was centrifuged at 12,000×g for 5 minutes to obtain plasma. Protein in the plasma is precipitated by mixing a 100 μL aliquot of plasma with 400 μL of methanol. The supernatant was assayed for PGE2 using a radioimmunoassay kit (Amersham, RPA#530) after conversion of PGE2 to its methyl oximate derivative according to the manufacturer's procedure.
(§2) In the assay, inhibition is determined by measuring the amount of prostaglandin E2 (PGE2) synthesized in the presence of arachidonic acid, COX-1 or COX-2 and a putative inhibitor.

[1] = test system: carrageenan paw edema, rats; assay: Rat paw edema assay (carrageenan); type: in vivo, Male Sprague-Dawley rats; details: po, 1 hr before carrageenan, paw volume 3 hr later, read-out: ED50 (edema inhibition in rat paw)
Description: Male Sprague-Dawley rats (150-200 g) were fasted overnight and were given, po, either vehicle (1% methocel or 5% Tween 80), or a test compound. One hr later, a line was drawn using a permanent marker at the level above the ankle in one hind paw to define the area of the paw to be monitored. The paw volume (V0) was measured using a plethysmometer (Ugo-Basile, Italy) based on the principle of water displacement. The animals were then injected subplantarly with 50 ,l of 1% carrageenan solution in saline (FMC Corp, Maine) into the paw using an insulin syringe with a 25-gauge needle (i.e., 500 μg carrageenan per paw). Three hr later, the paw volume (V3) was measured and the increases in paw volume (V3 -V0) were calculated. The animals were sacrificed by CO2 asphyxiation and the absence or presence of stomach lesions scored. Data were compared with the vehicle-control values and percent inhibition calculated. ED50 values were used for comparison. All treatment groups were coded to eliminate observer bias.

COX-1 = target: T2, COX-1 (Homo sapiens, UniProt P23219); assay: Human whole blood assay: COX-1 (clotting-induced TxB2 production); type: cell-based; details: clotting-induced TxB2, 1 hour at 37° C.
T2 construct: platelets in whole blood contain a large amount of the COX-1 enzyme; endogenous in cells; host or cells: platelets in fresh human whole blood
T2 sequence (P23219 24-599): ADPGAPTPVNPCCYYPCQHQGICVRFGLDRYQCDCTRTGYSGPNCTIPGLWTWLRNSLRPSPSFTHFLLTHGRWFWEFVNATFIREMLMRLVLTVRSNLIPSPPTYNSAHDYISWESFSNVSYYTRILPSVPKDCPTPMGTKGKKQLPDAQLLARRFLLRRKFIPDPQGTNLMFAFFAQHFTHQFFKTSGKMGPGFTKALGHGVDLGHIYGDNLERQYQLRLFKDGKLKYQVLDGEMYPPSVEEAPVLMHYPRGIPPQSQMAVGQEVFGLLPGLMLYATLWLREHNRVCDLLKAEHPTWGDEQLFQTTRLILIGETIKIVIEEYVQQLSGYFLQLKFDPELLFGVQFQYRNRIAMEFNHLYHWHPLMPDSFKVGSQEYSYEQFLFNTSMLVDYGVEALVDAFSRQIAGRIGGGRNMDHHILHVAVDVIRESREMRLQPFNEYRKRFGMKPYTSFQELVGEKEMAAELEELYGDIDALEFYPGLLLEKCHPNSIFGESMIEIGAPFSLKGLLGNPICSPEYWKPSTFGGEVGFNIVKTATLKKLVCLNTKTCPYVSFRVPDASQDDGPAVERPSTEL
Source text: as §1
Fresh blood was collected into vacutainer tubes containing no anticoagulants. […] The tubes were vortexed and incubated at 37° C. for 1 hour to allow blood to clot. Serum was obtained by centrifugation (12,000×g for 5 min). Serum protein is precipitated by mixing a 100 μL aliquot of serum with 400 μL of methanol.
as §2

SMILES	IC50 (COX-2)	ED50 [1]	IC50 (COX-1)
CS(=O)(=O)c1ccc(-c2sn[n+]([O-])c2-c2cccc(Cl)c2)cc1 [Example 5, 4-(3-CHLOROPHENYL)-5-(4-(METHYLSULFONYL)PHENYL-1-2-3-THIADIAZOL-3-OXIDE]	500 nM	1.5 mg/kg	
CS(=O)(=O)c1ccc(-c2sn[n+]([O-])c2-c2cccc(F)c2)cc1 [Example 3, 4-(3-FLUOROPHENYL)-5-(4-(METHYLSULFONYL)PHENYL-1-2-3-THIADIAZOL-3-OXIDE]	1300 nM		88000 nM
CS(=O)(=O)c1ccc(-c2sn[n+]([O-])c2-c2ccc(F)c(F)c2)cc1 [Example 4, 4-(3,4-DIFLUOROPHENYL)-5-(4-(METHYLSULFONYL)PHENYL-1-2-3-THIADIAZOL-3-OXIDE]	500 nM		57000 nM
COc1ccc2c(c1)c(CC(=O)O)c(C)n2C(=O)c1ccc(Cl)cc1 [Indomethacin, reference compound]		2 mg/kg	
CS(=O)(=O)c1ccc(-c2sn[n+]([O-])c2-c2ccc(F)cc2)cc1 [Example 2, 4-(4-FLUOROPHENYL)-5-(4-(METHYLSULFONYL)PHENYL-1-2-3-THIADIAZOL-3-OXIDE]	600 nM	0.5 mg/kg	18000 nM
CS(=O)(=O)c1ccc(-c2sn[n+]([O-])c2-c2ccccc2)cc1 [Example 1, 4-PHENYL-5-(4-(METHYLSULFONYL)PHENYL-1-2-3--THIADIAZOL-3-OXIDE]	600 nM	0.9 mg/kg	38000 nM
